From US20220226257A1, “USE OF CANNABINOIDS IN THE TREATMENT OF COM[…] EPILEPSY” (GW Research Limited, priority 2019, published 2022)

Experiments:
[1] = system: children and young adults with severe, childhood onset treatment-resistant epilepsy (TRE); assay: Principal component analysis of QOLCE survey data, open label (expanded access) study of CBD; assay type: in vivo, human
Experimental: PCA is a useful tool to visualise relatedness between populations of data and was used in the present example to determine the symptom domains that were improved during an open label study of cannabidiol (CBD) in patients with treatment resistant epilepsy.
(§1) Children and young adults with severe, childhood onset treatment-resistant epilepsy (TRE) were tested with a highly purified extract of cannabidiol (CBD) obtained from a cannabis plant. The participants in the study were part of an expanded access compassionate use program for CBD.
(§2) All patients entered a baseline period of 4 weeks when parents/caregivers kept prospective seizure diaries, noting all countable motor seizure types.
(§3) The patients then received a highly purified CBD extract (greater than 98% CBD w/w) in sesame oil, of known and constant composition, at a dose of 5 mg/kg/day in addition to their baseline anti-epileptic drug (AED) regimen.
(§4) Laboratory testing for hematologic, liver, kidney function, and concomitant AED levels was performed at baseline, and at regular intervals throughout the 12 weeks of the study.
The Quality of Life in Childhood Epilepsy (QOLCE) survey was used to measure multiple QOL domains. […] The QOLCE questionnaire assessed 91 items divided into five sub-domains: physical function; cognitive function; emotional well-being; social function and behaviour. General health was also recorded. […]

[2] = system: children and young adults with treatment resistant epilepsy associated with Dravet syndrome and Lennox-Gastaut syndrome; assay: Principal component analysis of QOLCE survey data pooled from three randomised controlled clinical trials; assay type: in vivo, human
Excerpt: As described in Example 1 above PCA is a useful tool to scrutinise data which have several variables. A similar analysis was undertaken on the data produced using data pooled from three randomised controlled clinical trials on children and young adults with treatment resistant epilepsy associated with Dravet syndrome (one trial) and Lennox-Gastaut syndrome (LGS) (2 trials).
In the two placebo-controlled studies of CBD as a treatment for seizures associated with LGS, cannabidiol (CBD) was used as add-on treatment in patients who were defined as treatment-resistant. Patients had previously tried and stopped using a median of 6 AEDs and were being maintained on a median of 3 AEDs.
The first study was a 1:1 randomised, double-blind, 14-week comparison of cannabidiol oral solution (CBD-OS) versus placebo. The treatment period consisted of a two-week titration period followed by a 12-week maintenance period. The treatment period was followed by a 10-day taper period and a four-week follow-up period. […]
The Quality of Life in Childhood Epilepsy (QOLCE) survey was used to measure multiple QOL domains. […] The QOLCE questionnaire assessed 91 items divided into five sub-domains: physical function; cognitive function; emotional well-being; social function and behaviour. General health was also recorded.

[3] = system: patients with Lennox-Gastaut syndrome; assay: Biostatistical analysis of QOLCE subscale scores versus placebo, randomised controlled trial; assay type: in vivo, human; design: key to Biostatistical analysis of QOL subscale score versus placebo: ↔: no change (indicated by); ↑: a difference of greater than 10 points between medians (indicated by t); this change was statistically significant (indicated by *); settings: 20 mg/kg/day
Excerpt: The following example uses biostatistical analysis to look for trends in QOL data collected in a randomised controlled trial of cannabidiol in patients with Lennox-Gastaut syndrome.
This study was a 1:1 randomised, double-blind, 14-week comparison of cannabidiol oral solution (CBD-OS) versus placebo. The treatment period consisted of a two-week titration period followed by a 12-week maintenance period. The treatment period was followed by a 10-day taper period and a four-week follow-up period. The study aimed to determine the efficacy, safety and tolerability of 20 mg/kg/day cannabidiol compared with placebo.
The Quality of Life in Childhood Epilepsy (QOLCE) survey was used to measure multiple QOL domains. Caregivers completed the survey at baseline and after the 12 weeks of treatment. The QOLCE questionnaire assessed 91 items divided into five sub-domains: physical function; cognitive function; emotional well-being; social function and behaviour. General health was also recorded.
Table 6 below details the areas where there no change (indicated by or a difference of greater than 10 points between medians (indicated by t), and whether this change was statistically significant (indicated by *).

[4] = system: patients suffering from epilepsy syndromes (childhood onset treatment-resistant epilepsy); assay: Case study analysis of quality of life measures, open label study (expanded access programme); assay type: in vivo, human
Experimental: The present example provides further data on additional epilepsy syndromes which were studied as part of the expanded access programme described in Example 1.
as §1, §2, §3, §4
Table 7 below details the results obtained at the end of the study period (after between 12 and 108 weeks) from patients suffering from epilepsy syndromes in an open label study.

[5] = system: epileptic male Wistar rats (RISE-SRS); settings: shown previously; cited from earlier work
[6] = system: paediatric patients with epilepsy; settings: care-giver-reported, 12 weeks open label; cited from earlier work

C=C(C)[C@@H]1CCC(C)=C[C@H]1c1c(O)cc(CCCCC)cc1O [CBD, Cannabidiol]
areas where improvement was observed without an improvement of seizures ([1]; bottom right area of the biplot): control/helplessness and stigma item | areas associated with quality of life with improvements (right of the zero F1 axis) ([1]; open label study, 12 weeks, 5 to 50 mg/kg/day): attention and concentration; QOL item; energy/fatigue; control/helplessness and stigma item | areas of QOL improved despite no improvement in seizure burden [2]: memory; language; control/helplessness; stigma item and cognition | areas associated with quality of life with improvements ([2]; 10 or 20 mg/kg/day): quality of life item; general health; social interactions; social activities; attention/concentration; overall quality of life; memory; language; control/helplessness; stigma item and cognition | QOL domains with a significant increase above baseline ([3]; Lennox-Gastaut syndrome): memory and language | domains with a decrease in quality of life ([3]; Lennox-Gastaut syndrome): no domains where there was a decrease in quality of life | Biostatistical analysis of QOL subscale score versus placebo ([3]; QOL subscale: Anxiety): ↔ | Biostatistical analysis of QOL subscale score versus placebo ([3]; QOL subscale: Attention / concentration): ↔ | Biostatistical analysis of QOL subscale score versus placebo ([3]; QOL subscale: Behaviour): ↔ | Biostatistical analysis of QOL subscale score versus placebo ([3]; QOL subscale: Control / helplessness): ↔ | Biostatistical analysis of QOL subscale score versus placebo ([3]; QOL subscale: Depression): ↔ | Biostatistical analysis of QOL subscale score versus placebo ([3]; QOL subscale: Energy/fatigue): ↔ | Biostatistical analysis of QOL subscale score versus placebo ([3]; QOL subscale: General health): ↔ | Biostatistical analysis of QOL subscale score versus placebo ([3]; QOL subscale: Language): ↑* | Biostatistical analysis of QOL subscale score versus placebo ([3]; QOL subscale: Memory): ↑* | Biostatistical analysis of QOL subscale score versus placebo ([3]; QOL subscale: Other cognitive): ↑* | Biostatistical analysis of QOL subscale score versus placebo ([3]; QOL subscale: Physical restriction): ↔ | Biostatistical analysis of QOL subscale score versus placebo ([3]; QOL subscale: Self-esteem): ↔ | Biostatistical analysis of QOL subscale score versus placebo ([3]; QOL subscale: Social activities): ↔ | Biostatistical analysis of QOL subscale score versus placebo ([3]; QOL subscale: Social interaction): ↑ (a difference of greater than 10 points between medians (indicated by t)) | Biostatistical analysis of QOL subscale score versus placebo ([3]; QOL subscale: Stigma item): ↔ | patients with a positive response (slightly improved; much improved or very much improved) ([4]; of the 39 patients for which data were recorded): 34 | QOL measure: Very much improved ([4]; patient 245-01, SNAP25, end of study period): ✓ | QOL measure: Very much improved ([4]; patient 245-03, FIRES, end of study period): ✓ | QOL measure: Much improved ([4]; patient 245-06, DUP15Q, end of study period): ✓ | QOL measure: Very much improved ([4]; patient 245-08, CDKL5, end of study period): ✓ | QOL measure: Very much improved ([4]; patient 245-11, CDKL5, end of study period): ✓ | QOL measure: Very much improved ([4]; patient 245-12, Aicardi, end of study period): ✓ | QOL measure: Much improved ([4]; patient 245-28, Aicardi, end of study period): ✓ | QOL measure: Much improved ([4]; patient 245-32, DUP15Q, end of study period): ✓ | QOL measure: Very much improved ([4]; patient 245-37, CDKL5, end of study period): ✓ | QOL measure: Slightly improved ([4]; patient 245-38, CDKL5, end of study period): ✓ | QOL measure: Much improved ([4]; patient 245-40, DUP15Q, end of study period): ✓ | QOL measure: Much improved ([4]; patient 245-42, DUP15Q, end of study period): ✓ | QOL measure: Slightly improved ([4]; patient 245-43, DUP15Q, end of study period): ✓ | QOL measure: Slightly improved ([4]; patient 245-45, CDKL5, end of study period): ✓ | QOL measure: Very much improved ([4]; patient 245-47, CDKL5, end of study period): ✓ | QOL measure: Very much improved ([4]; patient 245-48, CDKL5, end of study period): ✓ | QOL measure: Slightly worse ([4]; patient 245-56, CDKL5, end of study period): ✓ | QOL measure: Much improved ([4]; patient 245-57, Aicardi, end of study period): ✓ | QOL measure: Much improved ([4]; patient FIL-01, Aicardi, end of study period): ✓ | QOL measure: Very much improved ([4]; patient FIL-09, Doose, end of study period): ✓ | QOL measure: Much improved ([4]; patient FIL-14, Doose, end of study period): ✓ | QOL measure: Slightly worse ([4]; patient FIL-25, Aicardi, end of study period): ✓ | QOL measure: No change ([4]; patient FLAM-25, Tuberous sclerosis, end of study period): ✓ | QOL measure: Very much improved ([4]; patient LCH-04, Aicardi, end of study period): ✓ | QOL measure: No change ([4]; patient LCH-08, Aicardi, end of study period): ✓ | QOL measure: Very much improved ([4]; patient LCH-12, Aicardi, end of study period): ✓ | QOL measure: Very much improved ([4]; patient LCH-18, FIRES, end of study period): ✓ | QOL measure: Very much improved ([4]; patient LCH-21, CDKL5, end of study period): ✓ | QOL measure: Very much improved ([4]; patient LCH-22, Tuberous sclerosis, end of study period): ✓ | QOL measure: Much worse ([4]; patient MAR-E1, FIRES, end of study period): ✓ | QOL measure: Very much improved ([4]; patient MAR-E2, FIRES, end of study period): ✓ | QOL measure: Very much improved ([4]; patient PAT-10, Aicardi, end of study period): ✓ | QOL measure: Very much improved ([4]; patient PAT-11, Aicardi, end of study period): ✓ | QOL measure: Very much improved ([4]; patient PAT-21, Aicardi, end of study period): ✓ | QOL measure: Much improved ([4]; patient PAT-26, Aicardi, end of study period): ✓ | QOL measure: Much improved ([4]; patient WIL-02, Sturge Weber, end of study period): ✓ | QOL measure: Much improved ([4]; patient WIL-05, Doose, end of study period): ✓ | QOL measure: Much improved ([4]; patient WIL-09, CDKL5, end of study period): ✓ | QOL measure: Much improved ([4]; patient WIL-10, Angelman, end of study period): ✓ | quality of life in patients with additional epilepsy syndromes ([4]; tuberous sclerosis, CDKL5, Sturge Weber, Doose, Angelman, SNAP25, FIRES, DUP15Q, Aicardi): observable improvement in quality of life | cognitive performances of rats exhibiting spontaneous recurrent seizures [5]: restore the deteriorated cognitive performances | seizure ratio of rats exhibiting spontaneous recurrent seizures [5]: improved the seizure ratio | QOLCE areas with improvements [6]: energy/fatigue; memory; other cognitive functions; control/helplessness; social interactions; behaviour and global quality of life
